From the NIST ThermoML archive (doi:10.1016/j.jct.2018.09.011)
Where “and” joins values, the source holds several entries; their conditions need not be identical. Equal entries are not always repeated. Numbers after ± are expanded uncertainties.

Columns and labels:
[1] = for Normal melting temperature: DTA
[2] = Molar enthalpy of transition or fusion; conditions: Crystal; DSC

## Nc1ccccc1O [2-hydroxybenzenamine]
[1]; 321.12 K, Crystal, Calculated from knudsen effusion weight loss
  vapor or sublimation pressure: 0.000107 ± 2e-05 kPa and 0.000105 ± 2e-05 kPa and 0.000106 ± 2e-05 kPa
[1]; 323.43 K, Crystal, Calculated from knudsen effusion weight loss
  vapor or sublimation pressure: 0.000141 ± 2.1e-05 kPa and 0.000138 ± 2.1e-05 kPa and 0.000139 ± 2.1e-05 kPa
[1]; 325.14 K, Crystal, Calculated from knudsen effusion weight loss
  vapor or sublimation pressure: 0.00017 ± 2.1e-05 kPa and 0.000172 ± 2.1e-05 kPa
[1]; 327.13 K, Crystal, Calculated from knudsen effusion weight loss
  vapor or sublimation pressure: 0.000212 ± 2.1e-05 kPa and 0.000214 ± 2.1e-05 kPa
[1]; 329.3 K, Crystal, Calculated from knudsen effusion weight loss
  vapor or sublimation pressure: 0.000271 ± 2.2e-05 kPa and 0.000277 ± 2.2e-05 kPa and 0.000275 ± 2.2e-05 kPa
[1]; 331.21 K, Crystal, Calculated from knudsen effusion weight loss
  vapor or sublimation pressure: 0.000343 ± 2.3e-05 kPa and 0.000335 ± 2.3e-05 kPa and 0.00034 ± 2.3e-05 kPa
[1]; 333.13 K, Crystal, Calculated from knudsen effusion weight loss
  vapor or sublimation pressure: 0.000423 ± 2.5e-05 kPa and 0.000419 ± 2.5e-05 kPa
[1]; 335.33 K, Crystal, Calculated from knudsen effusion weight loss
  vapor or sublimation pressure: 0.000534 ± 2.8e-05 kPa and 0.000541 ± 2.8e-05 kPa and 0.000538 ± 2.8e-05 kPa
[1]; 337.2 K, Crystal, Calculated from knudsen effusion weight loss
  vapor or sublimation pressure: 0.000661 ± 3.1e-05 kPa and 0.000654 ± 3.1e-05 kPa and 0.000657 ± 3.1e-05 kPa
[1]; 339.14 K, Crystal, Calculated from knudsen effusion weight loss
  vapor or sublimation pressure: 0.000824 ± 3.5e-05 kPa and 0.000835 ± 3.6e-05 kPa and 0.000826 ± 3.5e-05 kPa
[1]; 341.33 K, Crystal, Calculated from knudsen effusion weight loss
  vapor or sublimation pressure: 0.001036 ± 8.1e-05 kPa and 0.001041 ± 8.1e-05 kPa and 0.001043 ± 8.2e-05 kPa
[1]; 343.26 K, Crystal, Calculated from knudsen effusion weight loss
  vapor or sublimation pressure: 0.00129 ± 0.00011 kPa and 0.001263 ± 0.0001 kPa
[1]; Crystal
  Normal melting temperature: 174.38 ± 0.68 °C
[2]
  Molar enthalpy of transition or fusion: 7.79 ± 0.194 kcal/mol

## Nc1cccc(O)c1 [3-hydroxybenzenamine]
[1]; 321.35 K, Crystal, Calculated from knudsen effusion weight loss
  vapor or sublimation pressure: 0.000101 ± 2e-05 kPa and 0.000102 ± 2e-05 kPa
[1]; 323.2 K, Crystal, Calculated from knudsen effusion weight loss
  vapor or sublimation pressure: 0.000127 ± 2.1e-05 kPa and 0.000126 ± 2.1e-05 kPa
[1]; 325.17 K, Crystal, Calculated from knudsen effusion weight loss
  vapor or sublimation pressure: 0.000163 ± 2.1e-05 kPa and 0.000161 ± 2.1e-05 kPa and 0.000162 ± 2.1e-05 kPa
[1]; 327.4 K, Crystal, Calculated from knudsen effusion weight loss
  vapor or sublimation pressure: 0.000209 ± 2.1e-05 kPa and 0.000211 ± 2.1e-05 kPa and 0.00021 ± 2.1e-05 kPa
[1]; 329.2 K, Crystal, Calculated from knudsen effusion weight loss
  vapor or sublimation pressure: 0.00026 ± 2.2e-05 kPa and 0.000259 ± 2.2e-05 kPa
[1]; 331.17 K, Crystal, Calculated from knudsen effusion weight loss
  vapor or sublimation pressure: 0.000327 ± 2.3e-05 kPa and 0.00033 ± 2.3e-05 kPa and 0.000328 ± 2.3e-05 kPa
[1]; 333.37 K, Crystal, Calculated from knudsen effusion weight loss
  vapor or sublimation pressure: 0.000422 ± 2.5e-05 kPa and 0.00042 ± 2.5e-05 kPa
[1]; 335.2 K, Crystal, Calculated from knudsen effusion weight loss
  vapor or sublimation pressure: 0.000513 ± 2.7e-05 kPa and 0.0005 ± 2.7e-05 kPa and 0.00051 ± 2.7e-05 kPa
[1]; 337.16 K, Crystal, Calculated from knudsen effusion weight loss
  vapor or sublimation pressure: 0.00063 ± 3e-05 kPa and 0.000633 ± 3e-05 kPa
[1]; 339.36 K, Crystal, Calculated from knudsen effusion weight loss
  vapor or sublimation pressure: 0.000816 ± 3.5e-05 kPa and 0.000808 ± 3.5e-05 kPa and 0.000818 ± 3.5e-05 kPa
[1]; 341.19 K, Crystal, Calculated from knudsen effusion weight loss
  vapor or sublimation pressure: 0.00099 ± 4e-05 kPa and 0.000998 ± 4.1e-05 kPa and 0.001 ± 4.1e-05 kPa
[1]; 343.33 K, Crystal, Calculated from knudsen effusion weight loss
  vapor or sublimation pressure: 0.001245 ± 0.0001 kPa and 0.001241 ± 0.0001 kPa and 0.001238 ± 0.0001 kPa
[1]; 354.45 K, Crystal
  vapor or sublimation pressure: 0.00426 ± 0.00023 kPa
[1]; 356.39 K, Crystal
  vapor or sublimation pressure: 0.00515 ± 0.00023 kPa
[1]; 358.34 K, Crystal
  vapor or sublimation pressure: 0.00622 ± 0.00025 kPa
[1]; 360.33 K, Crystal
  vapor or sublimation pressure: 0.00754 ± 0.00026 kPa
[1]; 362.32 K, Crystal
  vapor or sublimation pressure: 0.00913 ± 0.00026 kPa
[1]; 364.28 K, Crystal
  vapor or sublimation pressure: 0.01083 ± 0.00028 kPa
[1]; 366.24 K, Crystal
  vapor or sublimation pressure: 0.01321 ± 0.00029 kPa
[1]; 368.21 K, Crystal
  vapor or sublimation pressure: 0.01572 ± 0.00032 kPa
[1]; 369.99 K, Metastable liquid
  vapor or sublimation pressure: 0.02985 ± 0.00042 kPa
[1]; 370.19 K, Crystal
  vapor or sublimation pressure: 0.01886 ± 0.00035 kPa
[1]; 371.93 K, Metastable liquid
  vapor or sublimation pressure: 0.03445 ± 0.00047 kPa
[1]; 372.14 K, Crystal
  vapor or sublimation pressure: 0.02314 ± 0.00038 kPa
[1]; 373.94 K, Metastable liquid
  vapor or sublimation pressure: 0.03983 ± 0.00051 kPa
[1]; 374.12 K, Crystal
  vapor or sublimation pressure: 0.02745 ± 0.00041 kPa
[1]; 375.91 K, Metastable liquid
  vapor or sublimation pressure: 0.04535 ± 0.00055 kPa
[1]; 376.1 K, Crystal
  vapor or sublimation pressure: 0.03277 ± 0.00045 kPa
[1]; 377.86 K, Metastable liquid
  vapor or sublimation pressure: 0.05245 ± 0.00062 kPa
[1]; 378.06 K, Crystal
  vapor or sublimation pressure: 0.0385 ± 0.00051 kPa
[1]; 379.83 K, Metastable liquid
  vapor or sublimation pressure: 0.06035 ± 0.00069 kPa
[1]; 380.03 K, Crystal
  vapor or sublimation pressure: 0.04532 ± 0.00056 kPa
[1]; 381.81 K, Metastable liquid
  vapor or sublimation pressure: 0.06885 ± 0.00076 kPa
[1]; 382.13 K, Crystal
  vapor or sublimation pressure: 0.05475 ± 0.00065 kPa
[1]; 383.79 K, Metastable liquid
  vapor or sublimation pressure: 0.07865 ± 0.00085 kPa
[1]; 383.96 K, Crystal
  vapor or sublimation pressure: 0.06316 ± 0.00072 kPa
[1]; 385.75 K, Metastable liquid
  vapor or sublimation pressure: 0.08925 ± 0.00093 kPa
[1]; 385.9 K, Crystal
  vapor or sublimation pressure: 0.07525 ± 0.00082 kPa
[1]; 387.75 K, Metastable liquid
  vapor or sublimation pressure: 0.1024 ± 0.0011 kPa
[1]; 387.9 K, Crystal
  vapor or sublimation pressure: 0.08917 ± 0.00094 kPa
[1]; 389.74 K, Metastable liquid
  vapor or sublimation pressure: 0.1162 ± 0.0012 kPa
[1]; 389.85 K, Crystal
  vapor or sublimation pressure: 0.1058 ± 0.0011 kPa
[1]; 391.73 K, Metastable liquid
  vapor or sublimation pressure: 0.131 ± 0.0013 kPa
[1]; 391.83 K, Crystal
  vapor or sublimation pressure: 0.1242 ± 0.0012 kPa
[1]; 393.68 K, Metastable liquid
  vapor or sublimation pressure: 0.1478 ± 0.0015 kPa
[1]; 395.67 K, Metastable liquid
  vapor or sublimation pressure: 0.1684 ± 0.0016 kPa
[1]; 397.62 K, Liquid
  vapor or sublimation pressure: 0.1915 ± 0.0019 kPa
[1]; 399.72 K, Liquid
  vapor or sublimation pressure: 0.2191 ± 0.002 kPa
[1]; 401.54 K, Liquid
  vapor or sublimation pressure: 0.2426 ± 0.0023 kPa
[1]; 403.63 K, Liquid
  vapor or sublimation pressure: 0.2731 ± 0.0026 kPa
[1]; 405.59 K, Liquid
  vapor or sublimation pressure: 0.3119 ± 0.0029 kPa
[1]; 407.46 K, Liquid
  vapor or sublimation pressure: 0.3461 ± 0.0032 kPa
[1]; 409.54 K, Liquid
  vapor or sublimation pressure: 0.3932 ± 0.0036 kPa
[1]; 411.5 K, Liquid
  vapor or sublimation pressure: 0.4342 ± 0.004 kPa
[1]; 413.47 K, Liquid
  vapor or sublimation pressure: 0.4825 ± 0.0044 kPa
[1]; 415.43 K, Liquid
  vapor or sublimation pressure: 0.5451 ± 0.005 kPa
[1]; 417.4 K, Liquid
  vapor or sublimation pressure: 0.6031 ± 0.0054 kPa
[1]; 419.39 K, Liquid
  vapor or sublimation pressure: 0.6721 ± 0.006 kPa
[1]; 421.33 K, Liquid
  vapor or sublimation pressure: 0.7506 ± 0.0067 kPa
[1]; 423.31 K, Liquid
  vapor or sublimation pressure: 0.8416 ± 0.0075 kPa
[1]; Crystal
  Normal melting temperature: 121.48 ± 0.63 °C
[2]
  Molar enthalpy of transition or fusion: 5.6 ± 0.155 kcal/mol

## Nc1ccc(O)cc1 [4-hydroxybenzenamine]
[1]; 337.15 K, Crystal, Calculated from knudsen effusion weight loss
  vapor or sublimation pressure: 0.000113 ± 2e-05 kPa and 0.000111 ± 2e-05 kPa
[1]; 339.54 K, Crystal, Calculated from knudsen effusion weight loss
  vapor or sublimation pressure: 0.000144 ± 2.1e-05 kPa and 0.000147 ± 2.1e-05 kPa and 0.000145 ± 2.1e-05 kPa
[1]; 341.2 K, Crystal, Calculated from knudsen effusion weight loss
  vapor or sublimation pressure: 0.000179 ± 2.1e-05 kPa and 0.000175 ± 2.1e-05 kPa and 0.000177 ± 2.1e-05 kPa
[1]; 343.15 K, Crystal, Calculated from knudsen effusion weight loss
  vapor or sublimation pressure: 0.000223 ± 2.2e-05 kPa and 0.000221 ± 2.1e-05 kPa and 0.000219 ± 2.1e-05 kPa
[1]; 345.47 K, Crystal, Calculated from knudsen effusion weight loss
  vapor or sublimation pressure: 0.000284 ± 2.2e-05 kPa and 0.00028 ± 2.2e-05 kPa and 0.000287 ± 2.2e-05 kPa
[1]; 347.19 K, Crystal, Calculated from knudsen effusion weight loss
  vapor or sublimation pressure: 0.000348 ± 2.4e-05 kPa and 0.000342 ± 2.3e-05 kPa and 0.000344 ± 2.3e-05 kPa
[1]; 349.15 K, Crystal, Calculated from knudsen effusion weight loss
  vapor or sublimation pressure: 0.000425 ± 2.5e-05 kPa and 0.000418 ± 2.5e-05 kPa and 0.000431 ± 2.5e-05 kPa
[1]; 351.21 K, Crystal, Calculated from knudsen effusion weight loss
  vapor or sublimation pressure: 0.000527 ± 2.7e-05 kPa and 0.000533 ± 2.8e-05 kPa and 0.00053 ± 2.7e-05 kPa
[1]; 353.2 K, Crystal, Calculated from knudsen effusion weight loss
  vapor or sublimation pressure: 0.000653 ± 3.1e-05 kPa and 0.000634 ± 3e-05 kPa and 0.000645 ± 3e-05 kPa
[1]; 355.14 K, Crystal, Calculated from knudsen effusion weight loss
  vapor or sublimation pressure: 0.000787 ± 3.4e-05 kPa and 0.000786 ± 3.4e-05 kPa and 0.000796 ± 3.5e-05 kPa
[1]; 357.46 K, Crystal, Calculated from knudsen effusion weight loss
  vapor or sublimation pressure: 0.001018 ± 7.9e-05 kPa and 0.001002 ± 7.8e-05 kPa and 0.001003 ± 7.8e-05 kPa
[1]; 359.19 K, Crystal, Calculated from knudsen effusion weight loss
  vapor or sublimation pressure: 0.001205 ± 9.7e-05 kPa and 0.001211 ± 9.8e-05 kPa and 0.001198 ± 9.6e-05 kPa
[1]; Crystal
  Normal melting temperature: 186.89 ± 0.68 °C
[2]
  Molar enthalpy of transition or fusion: 7.51 ± 0.198 kcal/mol
